Measurements: US7585859B2, “PDE4B inhibitors and uses therefor” (Plexxikon, Inc., priority 2004, dated 2009)
Where two headings read alike, the source gives them in different places.

Legend:
[1] = target: T1, PDE4B: The catalytic domain of human PDE4B from S152-S528 (Homo sapiens, UniProt Q07343); assay: PDE4 IC50 determination by Scintillation Proximity Assay, PDE4B; assay type: biochemical
T1 construct: His6 (N); thrombin cleavage site (N); made in house; host or cells: E. coli
Outline: (§1)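 Radiometric SPA: PDE4B (80 ng/ml) or PDE4D (4 ng/ml) hydrolysed [^3H]cAMP over 30 min at 30°, and the bead-bound [^3H]AMP was scintillation-counted.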

PDE4D = target: T2, PDE4D (Homo sapiens, UniProt Q08499); assay: PDE4 IC50 determination by Scintillation Proximity Assay, PDE4D; assay type: biochemical
T2 construct: PDE4D: The catalytic domain of human PDE4B from S3 16-V692; His6 (N); thrombin cleavage site (N); made in house; host or cells: E. coli
T2 sequence (Q08499 380-756): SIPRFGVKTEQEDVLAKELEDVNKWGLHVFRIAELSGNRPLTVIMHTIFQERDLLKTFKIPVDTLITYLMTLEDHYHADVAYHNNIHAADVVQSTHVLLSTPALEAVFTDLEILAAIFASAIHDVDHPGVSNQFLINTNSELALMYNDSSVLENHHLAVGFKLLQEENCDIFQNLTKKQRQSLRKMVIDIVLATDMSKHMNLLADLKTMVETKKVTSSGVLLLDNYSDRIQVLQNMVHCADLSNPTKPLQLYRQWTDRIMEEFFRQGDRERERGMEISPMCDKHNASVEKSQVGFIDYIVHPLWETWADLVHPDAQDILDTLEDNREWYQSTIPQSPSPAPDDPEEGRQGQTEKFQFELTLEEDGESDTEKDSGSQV
Outline: as §1

[2] = target: T3, full-length human PDE4B2 isozyme (Homo sapiens, UniProt Q07343); assay: PDE4 IC50 determination by Scintillation Proximity Assay, PDE4B2; assay type: biochemical
T3 construct: The full-length human PDE4B2 isozyme; His6 (N); TEV cleavage site (N); made in house; host or cells: baculovirus infected insect cells (unpurified lysate)
T3 sequence (Q07343 1-564 isoform Q07343-2): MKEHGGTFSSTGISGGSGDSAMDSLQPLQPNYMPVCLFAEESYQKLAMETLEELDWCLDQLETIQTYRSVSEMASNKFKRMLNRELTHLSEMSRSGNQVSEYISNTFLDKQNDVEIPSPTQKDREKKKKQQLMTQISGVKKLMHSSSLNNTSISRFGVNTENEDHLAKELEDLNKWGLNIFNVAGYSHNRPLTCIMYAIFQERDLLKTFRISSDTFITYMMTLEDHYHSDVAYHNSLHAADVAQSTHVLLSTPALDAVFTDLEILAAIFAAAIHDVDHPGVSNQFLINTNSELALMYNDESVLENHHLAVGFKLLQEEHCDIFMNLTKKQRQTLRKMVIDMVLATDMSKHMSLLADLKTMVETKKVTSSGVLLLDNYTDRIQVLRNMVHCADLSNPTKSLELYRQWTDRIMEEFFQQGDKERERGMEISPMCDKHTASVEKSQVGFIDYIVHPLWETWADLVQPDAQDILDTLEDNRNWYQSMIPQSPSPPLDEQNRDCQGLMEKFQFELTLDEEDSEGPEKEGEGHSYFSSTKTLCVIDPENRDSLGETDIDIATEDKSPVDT
Outline: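 Unpurified His6-TEV-tagged full-length human PDE4B2 from baculovirus-infected insect cell lysate (2.5 μl of 50% glycerol stock/ml) hydrolysed [3H]cAMP in 50 mM Tris pH 7.5, 8.3 mM MgCl, 1.7 mM EGTA, 0.01% BSA for 30 min at 30°. Stopped with SPA beads in 18 mM ZnSO4; [3H]AMP scintillation counted, IC50 by non-linear regression.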

[3] = target: T4, full-length human PDE4D5 isozyme (Homo sapiens, UniProt Q08499); assay: PDE4 IC50 determination by Scintillation Proximity Assay, PDE4D5; assay type: biochemical
T4 construct: The full-length human PDE4D5 isozyme; His6 (N); TEV cleavage site (N); made in house; host or cells: baculovirus infected insect cells (unpurified lysate)
T4 sequence (Q08499 1-745 isoform Q08499-6): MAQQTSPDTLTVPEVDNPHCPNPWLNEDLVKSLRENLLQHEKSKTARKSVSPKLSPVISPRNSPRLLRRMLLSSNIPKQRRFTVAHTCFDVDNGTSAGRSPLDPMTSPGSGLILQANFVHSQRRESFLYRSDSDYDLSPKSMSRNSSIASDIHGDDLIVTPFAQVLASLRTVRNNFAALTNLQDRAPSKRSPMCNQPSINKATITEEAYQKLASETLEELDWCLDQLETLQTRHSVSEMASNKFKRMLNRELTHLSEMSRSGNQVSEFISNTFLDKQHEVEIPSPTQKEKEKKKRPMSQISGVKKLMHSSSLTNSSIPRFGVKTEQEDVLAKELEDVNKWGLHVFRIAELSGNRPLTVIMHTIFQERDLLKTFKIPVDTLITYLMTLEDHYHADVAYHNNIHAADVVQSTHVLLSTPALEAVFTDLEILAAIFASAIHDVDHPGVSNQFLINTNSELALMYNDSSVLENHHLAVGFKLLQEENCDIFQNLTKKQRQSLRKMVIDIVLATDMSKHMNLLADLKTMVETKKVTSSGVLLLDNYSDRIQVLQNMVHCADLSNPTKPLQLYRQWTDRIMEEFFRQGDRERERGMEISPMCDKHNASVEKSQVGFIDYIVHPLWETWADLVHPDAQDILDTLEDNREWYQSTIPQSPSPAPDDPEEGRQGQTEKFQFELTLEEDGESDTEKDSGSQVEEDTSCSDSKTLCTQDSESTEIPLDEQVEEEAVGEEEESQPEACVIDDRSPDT
Outline: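 Unpurified His6-tagged full-length human PDE4D5 from baculovirus-infected insect cell lysate, 0.083 μl glycerol stock/ml, hydrolysed [3H]cAMP in Tris pH 7.5/MgCl/EGTA buffer, 30 min at 30°. ZnSO4/SPA beads stop; [3H]AMP counted. Controls: DMSO and roflumilast; 11-point duplicate curves, nonlinear-regression IC50.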

[4] = tested on: TNFα levels in serum of LPS-challenged rats; assay: Rat inhibition studies: serum TNFα after iv LPS challenge; assay type: in vivo; conditions: 2 h, 2 hr challenge delay, read-out: % inhibition r TNFα
Experimental: All studies were done with male rats CD (SD) IGS BR (Crl) (Charles River, France), which were grouped in to 5 animal groups.
At the end of the acclimatization period, the non-fasted rats were weighed, individually identified on the tail with a permanent marker and administered by oral (po) or interperitoneal (ip) route with either vehicle, reference or test compound in a volume of 10 mL/kg adapted to the body weight. The animals were gathered in groups of 5 animals in a polystyrene labeled cage with sawdust covered floors. 2-hours after vehicle, reference or test substance administration, rats received an intravenous (iv) injection of 0.1 mg/kg LPS in a volume of 1 mL/kg of body weight. 2 h after LPS challenge (or as indicated in Tables 3B and 4B), blood samples were collected into tubes without anticoagulant by retro-orbital puncture under gas (isoflurane) anesthesia. Samples were allowed to clot at room temperature for 5 to 10 min then put on ice until there were prepared by centrifugation (6000×g for 3 min at 4° C.) and stored at −20° C. until use. TNFα levels were measured in serum samples in duplicate by ELISA technique according to the manufacturer's procedure (Rat TNFα kit Quantikine M (RTA00, R&D System, France)). Data are reported as percent decrease in observed TNFα levels versus TNFa levels observed for vehicle dosed animal groups.

[5] = tested on: TNF alpha production in LPS-stimulated human blood (Buffy coat); assay: TNF alpha production by stimulation with LPS in whole blood cultures; assay type: cell-based; conditions: human whole blood, LPS 100 ng/ml; read-out: IC 50 vs. indicated assay h TNFα
Experimental: Compounds were assayed to generate IC50 numbers as described in Example 54, using the following assay protocol (see Tables 3B and 4B for compounds and results).
Protocol • 1) Obtained 20 mM DMSO aliquots of desired concentrations of compounds (see Tables 3B and 4B for compounds tested and results). Placed 2 μl/well compound in DMSO in the top row of the dilution plate. Added 98 μl of RPMI 1640 media w/2.5% heat inactivated FBS.
2) Made the same media with 2% DMSO in it. Added 60 μl/well to well to make compound titration. Took 30 μl of top row and did a 1:3 dilution down the plate. In column 11 added 4 wells of 50 μM roflumilast and piclamilast. In column 12 added 2% DMSO media.
3) Transfered 20 μl/well into assay plates in duplicate.
4) Obtained human Buffy coat.
5) Diluted blood with 7 volumes of RPMI 1640 media with 1% P/S and 2.5% heat inactivated FBS (a 1:8 dilution)
6) Added160 μl/well of diluted blood to the assay plates.
7) Incubated for 1 hour at 37 degrees 5% CO2
8) Diluted LPS (which was already diluted to 1 mg/ml in PBS, 20 μl aliquots frozen −20 C.) to 10× desired final concentration to make a […] dilution (final concentration should be 100 ng/ml).
9) After 1 hour incubation added 20 μl/well of LPS to plates. A non-LPS treated background was also prepared. Samples were put on the shaker for a one minute 900 rpm.
10) Incubated for 4 hours in incubator.
11) After incubation, put on the shaker for a one minute 900 rpm and spun plate at 100 g for 10 minutes, Decel 5.
12) Carefully pipetted the top 75 μl supernatant into a new plate. Samples were frozen as needed.
Biosource hu-TNF ALPHA ELISA
• REAGENTS USED • DPBS 10×: VWR45000-428 (dilute 1:10 with Millipore Water) • TWEEN 20: FISHER BP337-500 • CAPTURE AND DETECTION ANTIBODIES: R&D DY510E • STREP-HRP: Biosource part SNN4004X • COLOR REAGENTS: R&D DY994 • STOP SOLUTION: from chemistry, or R&D DY999 • 1) Thawed samples to RT as needed. • 2) Added 50 μl Incubation buffer/well. • 3) Added 50 μl blood samples +50 μl Diluent buffer • 4) Incubated 2 hours at room temp. • 5) Washed the plate 4× with 300 μl/well wash buffer with microfill. Wash buffer was DPBS with 0.05% Tween pH 7.2-7.4 • 6) Added 100 μl biotinylated anti-TNFalpha • 7) Incubateed 1 hours at room temp. • 8) Washed the plate 4× with 300 μl/well wash buffer with microfill. Wash buffer was DPBS with 0.05% Tween pH 7.2-7.4 • 9) Added^100 μl Streptavidin-HRP working solution • 10) Incubated for 30 minutes at room temp. • 11) Washed the plate 4× with 300 μl/well wash buffer with microfill. Wash buffer was DPBS with 0.05% Tween pH 7.2-7.4 • 12) Added 100 μl Chromagen • 13) Incubated in the dark for 30 minutes until the blue color developed satisfactorily. • 14) Added 100 μl/well stop solution (2 N H2SO4). • 15) Read plate on WallacVictor at 450 nm for 0.1 sec/well

[6] = Table 1B, Formula I compounds, read-out: IC50 PDE4B
[7] = Table 1B, Formula I compounds, read-out: IC50 PDE4D
[8] = Table 1B, Formula I compounds, read-out: IC50 PDE4B2
[9] = Table 1B, Formula I compounds, read-out: IC50 PDE4D5
[10] = po, rat in vivo inhibition assay, 100 mg/kg po
[11] = second part of Table 2B (2-23 to 2-103), column 3, column is PDE4B in first part, read-out: IC 50 vs. indicated assay h TNFα
[12] = second part of Table 2B (2-23 to 2-103), column 5, column is PDE4D in first part, read-out: IC 50 vs. indicated assay h TNFα
[13] = second part of Table 2B (2-23 to 2-103), column 4, column is PDE4B2 in first part, read-out: IC 50 vs. indicated assay h TNFα

T1 sequence (Q07343 with tags, fused parts or gaps): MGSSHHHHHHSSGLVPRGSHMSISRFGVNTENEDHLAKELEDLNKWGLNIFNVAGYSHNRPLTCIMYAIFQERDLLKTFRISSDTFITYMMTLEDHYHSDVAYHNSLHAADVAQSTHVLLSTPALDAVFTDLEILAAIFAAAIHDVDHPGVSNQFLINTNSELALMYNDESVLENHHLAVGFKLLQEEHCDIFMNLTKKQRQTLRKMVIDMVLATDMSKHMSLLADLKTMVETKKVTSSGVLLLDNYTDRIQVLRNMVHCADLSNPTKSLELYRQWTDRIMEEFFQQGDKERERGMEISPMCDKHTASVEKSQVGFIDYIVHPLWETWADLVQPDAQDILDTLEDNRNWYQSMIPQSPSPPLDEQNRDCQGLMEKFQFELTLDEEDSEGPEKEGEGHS

Molecule `N#Cc1c(NC2CCCC2)sc(C(=O)c2cc(-c3ccccc3)no2)c1N` [Compound 1-143, 4-Amino-2-cyclopentylamino-5-(3-phenyl-isoxazole-5-carbonyl)-thiophene-3-carbonitrile] has an IC50 [1, 6] of under 10 µM, an IC50 (PDE4D; [7]) of under 10 µM and an IC50 [2, 8] of under 10 µM. The IC50 [3, 9] was under 10 µM, the inhibition in vivo at 50 mg ([4]; rat, ip) was over 20% and the inhibition in vivo at 80 mg ([4]; rat, 80 mg, po) was under 20%. The inhibition in vivo at 100 mg/kg ([4]; ip, rat, 100 mg/kg, ip) was over 20%.

`N#Cc1c(Nc2ccc(Oc3ccccc3)cc2)sc(C(=O)c2ccccc2Cl)c1N` [Compound 1-161, 4-Amino-5-(2-chloro-benzoyl)-2-(4-phenoxy-phenylamino)-thiophene-3-carbonitrile] was tested, and the IC50 [1, 6] was under 10 µM, the IC50 (PDE4D; [7]) was over 10 µM and the IC50 [2, 8] was under 10 µM. The IC50 [3, 9] was under 10 µM, the inhibition in vivo at 90 mg ([4]; rat, ip) was over 20% and the inhibition in vivo at 90 mg ([4]; rat, po) was under 20%.

With `CSc1cccc(Nc2sc(C(=O)c3ccccc3)c(N)c2C#N)c1` [Compound 1-169, 4-Amino-5-benzoyl-2-(3-methylsulfanyl-phenylamino)-thiophene-3-carbonitrile] the IC50 [1, 6] was under 10 µM, the IC50 (PDE4D; [7]) was under 10 µM and the IC50 [2, 8] was under 10 µM. The IC50 [3, 9] was under 10 µM and the inhibition in vivo at 70 mg ([4]; rat, 70 mg, po) was over 20%.

For `N#Cc1c(NC2CCCC2)sc(C(=O)c2ccccc2)c1N` [Compound 1-171, 4-Amino-5-benzoyl-2-cyclopentylamino-thiophene-3-carbonitrile], the IC50 [1, 6] was under 10 µM, the IC50 (PDE4D; [7]) was under 10 µM and the IC50 [2, 8] was under 10 µM. It also gave an IC50 [3, 9] of under 10 µM and an inhibition in vivo at 100 mg/kg [4, 10] of under 20%.

`N#Cc1c(NC2CCCC2)sc(C(=O)c2cc(-c3ccc(Cl)cc3)no2)c1N` [Compound 1-173, 4-Amino-5-[3-(4-chloro-phenyl)-isoxazole-5-carbonyl]-2-cyclopentylamino-thiophene-3-carbonitrile] showed an IC50 [1, 6] of under 10 µM, an IC50 (PDE4D; [7]) of over 10 µM and an IC50 [2, 8] of under 10 µM. It also gave an IC50 [3, 9] of over 10 µM and an inhibition in vivo at 100 mg/kg [4, 10] of under 20%.

Molecule `CSc1cccc(Nc2sc(C(=O)c3cc(-c4ccccc4)no3)c(N)c2C#N)c1` [Compound 1-181, 4-Amino-2-(3-methylsulfanyl-phenylamino)-5-(3-phenyl-isoxazole-5-carbonyl)-thiophene-3-carbonitrile] has an IC50 [1, 6] of under 10 µM, an IC50 (PDE4D; [7]) of under 10 µM and an IC50 [2, 8] of under 10 µM. For the same molecule, the IC50 [3, 9] was under 10 µM and the inhibition in vivo at 100 mg/kg [4, 10] was under 20%.

For `N#Cc1c(NC2CC2)sc(C(=O)c2cc(-c3ccccc3)no2)c1N` [Compound 1-186, 4-Amino-2-cyclopropylamino-5-(3-phenyl-isoxazole-5-carbonyl)-thiophene-3-carbonitrile], the IC50 [1, 6] was under 10 µM, the IC50 (PDE4D; [7]) was over 10 µM and the IC50 [2, 8] was under 10 µM. It also gave an IC50 [3, 9] of under 10 µM and an inhibition in vivo at 100 mg/kg [4, 10] of under 20%.

`N#Cc1c(NC2CCCC2)sc(C(=O)c2cc(-c3ccc(F)cc3)no2)c1N` [Compound 1-221, 4-Amino-2-cyclopentylamino-5-[3-(4-fluoro-phenyl)-isoxazole-5-carbonyl]-thiophene-3-carbonitrile] gave an IC50 [1, 6] of under 10 µM, an IC50 (PDE4D; [7]) of over 10 µM and an IC50 [2, 8] of under 10 µM. The IC50 [3, 9] was over 10 µM and the inhibition in vivo at 50 mg ([4]; rat, po) was under 20%.

`Nc1nc(NC2CCCC2)sc1C(=O)c1cc(-c2ccccc2)no1` [Compound 2-9, (4-Amino-2-cyclopentylamino-thiazol-5-yl)-(3-phenyl-isoxazol-5-yl)-methanone] showed an IC50 ([1]; first part of Table 2B (2-1 to 2-22), read-out: IC 50 vs. indicated assay PDE4B) of under 10 µM, an IC50 (PDE4D; first part of Table 2B (2-1 to 2-22), read-out: IC 50 vs. indicated assay PDE4D) of under 10 µM and an IC50 ([2]; first part of Table 2B (2-1 to 2-22), read-out: IC 50 vs. indicated assay PDE4B2) of under 10 µM. The IC50 ([3]; first part of Table 2B (2-1 to 2-22), read-out: IC 50 vs. indicated assay PDE4D5) was under 10 µM and the inhibition in vivo at 100 mg/kg ([4]; po, rat in vivo, 100 mg/kg po, percent decrease in TNFα versus vehicle) was over 20%.

With `Nc1nc(Nc2ccc(C(=O)O)cc2)sc1C(=O)c1ccccc1` [Compound 2-35, 4-(4-Amino-5-benzoyl-thiazol-2-ylamino)-benzoic acid] the IC50 [1, 11] was under 10 µM, the IC50 (PDE4D; [12]) was under 10 µM and the IC50 [2, 13] was under 10 µM. It also gave an IC50 [5] of over 10 µM.

With `Nc1nc(NC2CCCC2)sc1C(=O)c1ccc(Oc2ccccc2)cc1` [Compound 2-76, (4-Amino-2-cyclopentylamino-thiazol-5-yl)-(4-phenoxy-phenyl)-methanone] the IC50 [1, 11] was under 10 µM, the IC50 (PDE4D; [12]) was under 10 µM and the IC50 [2, 13] was under 10 µM. It also gave an IC50 [5] of over 10 µM.
